Reference: the supplement of paper PMC10307832

How the values were obtained:
Experiment in all cases: relative viability (nuclei count vs DMSO), 5 days (fraction); higher = more cells survive
EMC-BAC-2 = test system: EMC-BAC-2
Method in brief: (§1)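 After 5 days of treatment, lung cancer cells in 1536-well plates were fixed and stained in a single step (final 0.05% Triton X-100, 1% formaldehyde, 1 ug/ml Hoechst) and their nuclei counted on 4× images. Treatment had been applied by pin tool the day after seeding as one drug alone or as a fixed anchor-drug dose with five library-drug doses (not always all listed) in √10 steps. Relative viability is the nuclei count of treated wells divided by that of vehicle wells, and values are medians of duplicate plates.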

SK-MES-1 = test system: SK-MES-1
Method in brief: as §1

NCI-H3122 = test system: NCI-H3122
Method in brief: as §1

NCI-H727 = test system: NCI-H727
Method in brief: as §1

ABC-1 = test system: ABC-1
Method in brief: as §1

NCI-H322M = test system: NCI-H322M
Method in brief: as §1

NCI-H2009 = test system: NCI-H2009
Method in brief: as §1

LK-2 = test system: LK-2
Method in brief: as §1

HOP-62 = test system: HOP-62
Method in brief: as §1

NCI-H1944 = test system: NCI-H1944
Method in brief: as §1

NCI-H2228 = test system: NCI-H2228
Method in brief: as §1

A-427 = test system: A-427
Method in brief: as §1

SW 1573 = test system: SW 1573
Method in brief: as §1

NCI-H2170 = test system: NCI-H2170
Method in brief: as §1

NCI-H596 = test system: NCI-H596
Method in brief: as §1

PC-3 [JPC-3] = test system: PC-3 [JPC-3]
Method in brief: as §1

LXF-289 = test system: LXF-289
Method in brief: as §1

NCI-H1792 = test system: NCI-H1792
Method in brief: as §1

HARA = test system: HARA
Method in brief: as §1

NCI-H1993 = test system: NCI-H1993
Method in brief: as §1

CCN(CC)CCCCNc1ncc2cc(-c3cc(OC)cc(OC)c3)c(NC(=O)NC(C)(C)C)nc2n1 + C[C@@H](Oc1cc(-c2cnn(C3CCNCC3)c2)cnc1N)c1c(Cl)ccc(F)c1Cl [Crizotinib] (partner 1 µM)
relative viability (EMC-BAC-2; first compound 0.01 µM): 0.851
relative viability (EMC-BAC-2; first compound 0.03162 µM): 0.761
relative viability (EMC-BAC-2; first compound 0.1 µM): 0.85
relative viability (EMC-BAC-2; first compound 0.3162 µM): 0.839
relative viability (EMC-BAC-2; first compound 1 µM): 0.735
relative viability (SK-MES-1; first compound 0.01 µM): 1.06
relative viability (SK-MES-1; first compound 0.03162 µM): 1.05
relative viability (SK-MES-1; first compound 0.1 µM): 1.14
relative viability (SK-MES-1; first compound 0.3162 µM): 1.03
relative viability (SK-MES-1; first compound 1 µM): 1.01
relative viability (NCI-H3122; first compound 0.01 µM): 0.273
relative viability (NCI-H3122; first compound 0.03162 µM): 0.282
relative viability (NCI-H3122; first compound 0.1 µM): 0.317
relative viability (NCI-H3122; first compound 0.3162 µM): 0.291
relative viability (NCI-H3122; first compound 1 µM): 0.279
relative viability (NCI-H727; first compound 0.01 µM): 0.829
relative viability (NCI-H727; first compound 0.03162 µM): 0.923
relative viability (NCI-H727; first compound 0.1 µM): 1.03
relative viability (NCI-H727; first compound 0.3162 µM): 1.06
relative viability (NCI-H727; first compound 1 µM): 0.837
relative viability (ABC-1; first compound 0.01 µM): 1.53
relative viability (ABC-1; first compound 0.03162 µM): 1.34
relative viability (ABC-1; first compound 0.1 µM): 1.18
relative viability (ABC-1; first compound 0.3162 µM): 1.09
relative viability (ABC-1; first compound 1 µM): 0.905
relative viability (NCI-H322M; first compound 0.01 µM): 0.977
relative viability (NCI-H322M; first compound 0.03162 µM): 0.912
relative viability (NCI-H322M; first compound 0.1 µM): 0.928
relative viability (NCI-H322M; first compound 0.3162 µM): 1.06
relative viability (NCI-H322M; first compound 1 µM): 0.935
relative viability (NCI-H2009; first compound 0.01 µM): 1.1
relative viability (NCI-H2009; first compound 0.03162 µM): 1.08
relative viability (NCI-H2009; first compound 0.1 µM): 1.13
relative viability (NCI-H2009; first compound 0.3162 µM): 1.11
relative viability (NCI-H2009; first compound 1 µM): 0.953
relative viability (LK-2; first compound 0.01 µM): 0.235
relative viability (LK-2; first compound 0.03162 µM): 0.25
relative viability (LK-2; first compound 0.1 µM): 0.231
relative viability (LK-2; first compound 0.3162 µM): 0.246
relative viability (LK-2; first compound 1 µM): 0.258
relative viability (HOP-62; first compound 0.01 µM): 0.967
relative viability (HOP-62; first compound 0.03162 µM): 1.14
relative viability (HOP-62; first compound 0.1 µM): 0.903
relative viability (HOP-62; first compound 0.3162 µM): 1.08
relative viability (HOP-62; first compound 1 µM): 1.08
relative viability (NCI-H1944; first compound 0.01 µM): 1.29
relative viability (NCI-H1944; first compound 0.03162 µM): 1.14
relative viability (NCI-H1944; first compound 0.1 µM): 1.12
relative viability (NCI-H1944; first compound 0.3162 µM): 1.35
relative viability (NCI-H1944; first compound 1 µM): 1.09
relative viability (NCI-H2228; first compound 0.01 µM): 0.408
relative viability (NCI-H2228; first compound 0.03162 µM): 0.564
relative viability (NCI-H2228; first compound 0.1 µM): 0.348
relative viability (NCI-H2228; first compound 0.3162 µM): 0.358
relative viability (NCI-H2228; first compound 1 µM): 0.243
relative viability (A-427; first compound 0.01 µM): 0.886
relative viability (A-427; first compound 0.03162 µM): 0.812
relative viability (A-427; first compound 0.1 µM): 0.875
relative viability (A-427; first compound 0.3162 µM): 0.909
relative viability (A-427; first compound 1 µM): 0.727
relative viability (SW 1573; first compound 0.01 µM): 0.69
relative viability (SW 1573; first compound 0.03162 µM): 0.813
relative viability (SW 1573; first compound 0.1 µM): 1.05
relative viability (SW 1573; first compound 0.3162 µM): 0.774
relative viability (SW 1573; first compound 1 µM): 0.722
relative viability (NCI-H2170; first compound 0.01 µM): 1.35
relative viability (NCI-H2170; first compound 0.03162 µM): 1.34
relative viability (NCI-H2170; first compound 0.1 µM): 1.32
relative viability (NCI-H2170; first compound 0.3162 µM): 1.27
relative viability (NCI-H2170; first compound 1 µM): 1.16
relative viability (NCI-H596; first compound 0.01 µM): 0.918
relative viability (NCI-H596; first compound 0.03162 µM): 1.04
relative viability (NCI-H596; first compound 0.1 µM): 1.02
relative viability (NCI-H596; first compound 0.3162 µM): 0.956
relative viability (NCI-H596; first compound 1 µM): 0.894
relative viability (PC-3 [JPC-3]; first compound 0.01 µM): 1
relative viability (PC-3 [JPC-3]; first compound 0.03162 µM): 1.01
relative viability (PC-3 [JPC-3]; first compound 0.1 µM): 1.04
relative viability (PC-3 [JPC-3]; first compound 0.3162 µM): 1.04
relative viability (PC-3 [JPC-3]; first compound 1 µM): 0.889
relative viability (LXF-289; first compound 0.01 µM): 0.836
relative viability (LXF-289; first compound 0.03162 µM): 0.817
relative viability (LXF-289; first compound 0.1 µM): 0.916
relative viability (LXF-289; first compound 0.3162 µM): 0.824
relative viability (LXF-289; first compound 1 µM): 0.696
relative viability (NCI-H1792; first compound 0.01 µM): 1.07
relative viability (NCI-H1792; first compound 0.03162 µM): 1.02
relative viability (NCI-H1792; first compound 0.1 µM): 1.33
relative viability (NCI-H1792; first compound 0.3162 µM): 1.41
relative viability (NCI-H1792; first compound 1 µM): 0.541
relative viability (HARA; first compound 0.01 µM): 1.19
relative viability (HARA; first compound 0.03162 µM): 1.03
relative viability (HARA; first compound 0.1 µM): 1.26
relative viability (HARA; first compound 0.3162 µM): 1.17
relative viability (HARA; first compound 1 µM): 0.816
relative viability (NCI-H1993; first compound 0.01 µM): 0.875
relative viability (NCI-H1993; first compound 0.03162 µM): 0.974
relative viability (NCI-H1993; first compound 0.1 µM): 0.875
relative viability (NCI-H1993; first compound 0.3162 µM): 0.985
relative viability (NCI-H1993; first compound 1 µM): 0.783
